Experimental data published in patent US7186743B2, “Substituted pyrazolyl compounds for the treatment of inflammation” (Pharmacia Corporation, priority 2001, dated 2007).
Counter-ions that a name gives are not always drawn. Like-named read-outs stand apart in the source and are kept apart here. One block for each compound: values may come before it.

Molecular target: T1, IKK2 (Homo sapiens, UniProt O14920)
T1 construct: made in house; host or cells: insect cells (baculovirus, pFastBac; SF9)
T1 sequence (O14920 1-756): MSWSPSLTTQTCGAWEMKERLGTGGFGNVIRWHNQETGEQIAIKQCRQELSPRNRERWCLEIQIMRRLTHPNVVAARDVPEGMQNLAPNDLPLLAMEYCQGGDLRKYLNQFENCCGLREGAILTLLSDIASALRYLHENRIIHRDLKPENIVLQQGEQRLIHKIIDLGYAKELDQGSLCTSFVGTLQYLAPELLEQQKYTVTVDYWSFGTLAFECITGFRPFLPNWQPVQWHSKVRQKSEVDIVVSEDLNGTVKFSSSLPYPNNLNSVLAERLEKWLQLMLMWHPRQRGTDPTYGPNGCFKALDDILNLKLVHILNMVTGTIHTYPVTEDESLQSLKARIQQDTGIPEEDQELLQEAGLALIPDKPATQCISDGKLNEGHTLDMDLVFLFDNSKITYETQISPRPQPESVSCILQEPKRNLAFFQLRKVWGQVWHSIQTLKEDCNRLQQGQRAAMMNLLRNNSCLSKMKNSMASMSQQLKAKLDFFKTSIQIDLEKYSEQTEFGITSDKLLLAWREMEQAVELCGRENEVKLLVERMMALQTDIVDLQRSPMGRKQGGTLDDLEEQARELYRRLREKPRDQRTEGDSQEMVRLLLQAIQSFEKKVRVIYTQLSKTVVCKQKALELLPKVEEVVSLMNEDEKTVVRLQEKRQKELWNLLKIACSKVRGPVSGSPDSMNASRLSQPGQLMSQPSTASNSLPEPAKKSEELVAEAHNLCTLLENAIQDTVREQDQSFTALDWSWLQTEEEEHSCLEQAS
Test: IKKβ Resin Enzyme Assay (IKK2 resin)
Type: biochemical
Description: cDNAs of human IKK1 and IKK2 were amplified by reverse transcriptase-polymerase chain reaction from human placental RNA (Clonetech). hIKK1 was subcloned into pFastBac HTa (Life Technologies) and expressed as N-terminal His6-tagged fusion protein. The hIKK2 cDNA was amplified using a reverse oligonucleotide primer which incorporated the peptide sequence for a FLAG-epitope tag at the C-terminus of the IKK2 coding region ([…]). The hIKK2:FLAG cDNA was subcloned into the baculovirus vector pFastBac. The rhIKK2 ([…]) mutant was constructed in the same vector used for wild type rhIKK2 using a QuikChange™ mutagenesis kit (Stratagene). Viral stocks of each construct were used to infect insect cells grown in 40 L suspension culture. […] Cell lysates were stored at −80° C. until purification of the recombinant proteins was undertaken as described below.
A 10-liter culture of baculovirus-expressing IKK2 tagged with FLAG peptide was centrifuged and the cell pellet (MOI=0.1 and I=72 hrs) was re-suspended in buffer A. These cells were microfluidized, and centrifuged at 100,000×g for 45 min. Supernatant was passed over a G-25 column equilibrated with Buffer A. Protein peak was collected and incubated with anti-FLAG affinity resin on a rotator overnight in buffer B. The resin was washed in batch with 10–15 bed volumes of buffer C. Washed resin was poured into a column and rhIKK2 homodimer was eluted using 5 bed volumes of buffer B containing FLAG peptide. 5 mM DTT, 0.1% NP-40 and BSA (concentrated to 0.1% in final amount) was added to the eluted enzyme before concentrating in using an Amicon membrane with a molecular weight cut-off of 30 kDa. Enzyme was aliquoted and stored at −80° C.
IKKβ kinase activity was measured using a biotinylated IκBα peptide ([…]32-Gly-Leu-Asp-Ser36-Met-Lys-Asp-Glu-Glu) (American Peptide Co.). […] ATP (Amersham) (about 1×10^5 cpm), 1 μM ATP (Sigma), 1 mM DTT (Sigma), 2 mM MgCl2 (Sigma), 2 mM MnCl2 (Sigma), 10 mM NaF (Sigma), 25 mM Hepes (Sigma) buffer, pH 7.6 and 20 μl enzyme solution and 10 ul inhibitor in a final volume of 50 μl. After incubation at 25° C. for 30 min, 150 μl resin (Dowex anion-exchange resin AG1X8 200–400 mesh) in 900 mM formate, pH 3.0 was added to each well to stop the reaction. Resin was allowed to settle for one hour and 50 ul of supernatant was removed to a Micolite-2 flat bottom plate (Dynex). 150 μl of scintillation fluid (Microscint 40) (Packard) was added to each well. Incorporation of [γ-^33P] ATP was measured using a Top-Count NXT (Packard).

[1] = Table 10, read-out: IKK2 Resin IC50
[2] = Table 6, read-out: IKK2 Resin IC 50
[3] = Table 3, read-out: IKK Resin IC50
[4] = Table 4, read-out: IKK2 Resin IC50
[5] = Table 14, read-out: IKK2 Resin IC50
[6] = Table 2, read-out: IKK Resin IC50
[7] = Table 15, read-out: IKK2 Resin IC50
[8] = Table 11, read-out: IKK2 Resin IC50

Structure (SMILES): NC(=O)c1nn(-c2ccc(O)cc2)c2c1CCc1ccc(NC(=O)c3cc(N)ccc3Cl)cc1-2 [Example 280, 8-[(5-amino-2-chlorobenzoyl)amino]-1-(4-hydroxyphenyl)-4,5-dihydro-1H-benzo[g]indazole-3-carboxamide]
IC50 [1]: ≤ 1000 nM

Structure (SMILES): Cc1ccccc1C(=O)Nc1ccc2c(c1)-c1c(c(C(N)=O)nn1-c1ccc(F)cc1)CC2 [Example 240, 1-(4-fluorophenyl)-8-[(2-methylbenzoyl)amino]-4,5-benzo[g]indazole-3-dihydro-1H-carboxamide]
IC50 [2]: ≤ 1000 nM

Structure (SMILES): COc1cc(Cl)c(C(=O)Nc2ccc3c(c2)-c2c(c(C(N)=O)nn2-c2ccc(S(C)(=O)=O)cc2)CC3)cc1OC [Example 131, 8-[(2-chloro-4,5-dimethoxybenzoyl)amino]-1-[4-(methylsulfonyl)phenyl]-4,5-dihydro-1H-benzo[g]indazole-3-carboxamide]
IC50 [3]: ≤ 1000 nM

Structure (SMILES): CS(=O)(=O)c1ccc(-n2nc(C(N)=O)c3c2-c2cc(NC(=O)c4ccc(Cl)cc4[N+](=O)[O-])ccc2CC3)cc1 [Example 132, 8-[(4-chloro-2-nitrobenzoyl)amino]-1-[4-(methylsulfonyl)phenyl]-4,5-dihydro-1H-benzo[g]indazole-3-carboxamide]
IC50 [3]: ≤ 1000 nM

Structure (SMILES): COc1ccc(Cl)c(C(=O)Nc2ccc3c(c2)-c2c(c(C(N)=O)nn2-c2ccc4c(c2)OCO4)CC3)c1 [Example 178, 1-(1,3-benzodioxol-5-yl)-8-[(2-chloro-5-methoxybenzoyl)amino]-4,5-dihydro-1H-benzo[g]indazole-3-carboxamide]
IC50 [4]: ≤ 1000 nM

Structure (SMILES): NC(=O)c1nn(-c2cccc(F)c2)c2c1CCc1ccc(NC(=O)c3cccnc3Cl)cc1-2 [Example 345, 8-{[(2-chloropyridin-3-yl)carbonyl]amino}-1-(3-fluorophenyl)-4,5-dihydro-1H-benzo[g]indazole-3-carboxamide]
IC50 [5]: ≤ 1000 nM

Structure (SMILES): NC(=O)c1nn(-c2ccc3c(c2)OCO3)c2c1CCc1ccc(NC(=O)c3cccc(N)c3Cl)cc1-2 [Example 171, 8-[(3-amino-2-chlorobenzoyl)amino]-1-(1,3-benzodioxol-5-yl)-4,5-dihydro-1H-benzo[g]indazole-3-carboxamidehydrochloride]
IC50 [4]: ≤ 1000 nM

Structure (SMILES): NC(=O)c1nn(-c2ccc(S(=O)(=O)C(F)(F)F)cc2)c2c1CCc1ccc(NC(=O)c3cccnc3Cl)cc1-2 [Example 359, 8-{[(2-chloropyridin-3-yl)carbonyl]amino}-1-{4-[(trifluoromethyl)sulfonyl]phenyl}-4,5-dihydro-1H-benzo[g]indazole-3-carboxamide]
IC50 [5]: ≤ 1000 nM

Structure (SMILES): CS(=O)(=O)c1ccc(-n2nc(C(N)=O)c3c2-c2cc(NC(=O)c4cccc(Cl)c4F)ccc2CC3)cc1 [Example 104, 8-[(3-chloro-2-fluorobenzoyl)amino]-1-[4-(methylsulfonyl)phenyl]-4,5-dihydro-1H-benza[g]indazole-3-carboxamide]
IC50 [6]: ≤ 1000 nM

IC50 [6]: ≤ 1000 nM
Structure (SMILES): CN1CCN(c2ccc(Cl)c(C(=O)Nc3ccc4c(c3)-c3c(c(C(N)=O)nn3-c3ccc(S(C)(=O)=O)cc3)CC4)c2)CC1 [Example 126, 8-{[2-chloro-5-(4-methylpiperazin-1-yl)benzoyl]amino}-1-[4-(methylsulfonyl)phenyl]-4,5-dihydro-1H-benzo[g]indazole-3-carboxamide]

Structure (SMILES): CS(=O)(=O)Nc1ccc(-n2nc(C(N)=O)c3c2-c2cc(NC(=O)c4ccccc4Cl)ccc2CC3)cc1 [Example 372, 8-[(2-chlorobenzoyl)amino]-1-{4-[(methylsulfonyl)amino]phenyl}-4,5-dihydro-1H-benzo[g]indazole-3-carboxamide]
IC50 [7]: ≤ 1000 nM

Structure (SMILES): CS(=O)(=O)c1ccc(-n2nc(C(N)=O)c3c2-c2cc(NC(=O)c4ccc([N+](=O)[O-])cc4[N+](=O)[O-])ccc2CC3)cc1 [Example 155, 8-[(2,4-dinitrobenzoyl)animo]-1-[4-(methylsulfonyl)phenyl]-4,5-dihydro-1H-benzo[g]indazole-3-carboxamide]
IC50 [3]: ≤ 1000 nM

Structure (SMILES): NC(=O)c1nn(-c2ccc(O)cc2)c2c1CCc1ccc(NC(=O)c3ccccc3Cl)cc1-2 [Example 261, 8-[(2-chlorobenzoyl)amino]-1-(4-hydroxyphenyl)-4,5-dihydro-1H-benzo[g]indazole-3-carboxamide]
IC50 (Table 8, read-out: IKK2 Resin IC50): ≤ 1000 nM

Structure (SMILES): COc1ccc(C(=O)Nc2ccc3c(c2)-c2c(c(C(N)=O)nn2-c2cccc(O)c2)CC3)c(Cl)c1OC [Example 286, 8-[(2-chloro-3,4-dimethoxybenzoyl)amino]-1-(3-hydroxyphenyl)-4,5-dihydro-1H-benzo[g]indazole-3-carboxamide]
IC50 [1]: ≤ 1000 nM

Structure (SMILES): CC(=O)CCc1ccc(-n2nc(C(N)=O)c3c2-c2cc(NC(=O)c4cccnc4Cl)ccc2CC3)cc1 [Example 302, 8-{[(2-chloropyridin-3-yl)carbonyl]amino}-1-[4-(3-oxobutyl)phenyl]-4,5-dihydro-1H-benzo[g]indazole-3-carboxamide]
IC50 [8]: ≤ 1000 nM

Structure (SMILES): CSc1ccc(-n2nc(C(N)=O)c3c2-c2cc(NC(=O)c4ccncc4Cl)ccc2CC3)cc1 [Example 412, 8-[(3-chloroisonicotinoyl)amino]-1-[4-(methylthio)phenyl]-4,5-dihydro-1H-benzo[g]indazole-3-carboxamide hydrochloride]
IC50 (Table 19, read-out: IKK2 Resin IC50): ≤ 1000 nM

Structure (SMILES): COc1ccc(C(=O)Nc2ccc3c(c2)-c2c(c(C(N)=O)nn2-c2cccc(O)c2)CC3)c(Cl)c1 [Example 283, 8-[(2-chloro-4-methoxybenzoyl)ammo]-1-(3-hydroxyphenyl)-4,5-dihydro-1H-benzo[g]indazole-3-carboxamide]
IC50 [1]: ≤ 1000 nM

Structure (SMILES): NC(=O)c1nn(-c2ccc(F)cc2F)c2c1CCc1ccc(NC(=O)c3cccnc3Cl)cc1-2 [Example 366, 8-{[(2-chloropyridin-3-yl)carbonyl]amino}-1-(2,4-difluorophenyl)-4,5-dihydro-1H-benzo[g]indazole-3-carboxamide]
IC50 [5]: ≤ 1000 nM

Structure (SMILES): Cc1ccc(C(=O)Nc2ccc3c(c2)-c2c(c(C(N)=O)nn2-c2ccc4c(c2)OCO4)CC3)c(Cl)n1 [Example 167, 1-(1,3-benzodioxol-5-yl)-8-{[(2-chloro-6-methylpyridin-3-yl)carbonyl]amino}-4,5-dihydro-1H-benzo[g]indazole-3-carboxamide]
IC50 [4]: ≤ 1000 nM

Structure (SMILES): Cc1c(O)cccc1C(=O)Nc1ccc2c(c1)-c1c(c(C(N)=O)nn1-c1ccc(F)cc1)CC2 [Example 231, 1-(4-fluorophenyl)-8-[(3-hydroxy-2-methylbenzoyl)amino]-4,5-dihydro-1H-benzo[g]indazole-3-carboxamide]
IC50 [2]: ≤ 1000 nM

Structure (SMILES): NC(=O)c1nn(-c2cccc(N)c2)c2c1CCc1ccc(NC(=O)c3ccccc3Cl)cc1-2 [Example 375, 1-(3-aminophenyl)-8-[(2-chlorobenzoyl)amino]-4,5-dihydro-1H-benzo[g]indazole-3-carboxamide]
IC50 [7]: ≤ 1000 nM

Structure (SMILES): NC(=O)/C=C/c1ccc(-n2nc(C(N)=O)c3c2-c2cc(NC(=O)c4ccccc4Cl)ccc2CC3)cc1 [Example 292, 1-{4-[(1E)-3-amino-3-oxoprop-1-enyl]phenyl}-8-[(2-chlorobenzoyl)amino]-4,5-dihydro-1H-benzo[g]indazole-3-carboxamide]
IC50 [8]: ≤ 1000 nM
